From ChEMBL document CHEMBL3414456, “Pentacyclic triterpene derivatives possessing polyhydroxyl ring A inhibit gram-positive bacteria growth by regulating metabolism and virulence genes expression” (2015)
Values after ≈ are worked out from the molar mass of the structure shown. Active and inactive are the calls of the source. The calls are words filed in the database; no cut-off is given here.

Columns and labels:
[1] = system: Streptomyces scabiei; experiment: Antibacterial activity against Streptomyces scabiei CGMCC4.7610246 assessed as growth inhibition at 100 uM after 36 hrs by turbidimetric analysis; type: functional, organism-based
[2] = system: Bacillus spizizenii; experiment: Antibacterial activity against Bacillus subtilis ATCC 6633 assessed as growth inhibition at 100 uM after 24 hrs by turbidimetric analysis; type: functional; details: for inhibition of growth at 100 µM: ATCC 6633, 24 h, read-out: GI
[3] = system: Staphylococcus aureus; experiment: Antibacterial activity against Staphylococcus aureus ATCC 25923 assessed as growth inhibition at 100 uM after 24 hrs by turbidimetric analysis; type: functional; details: for inhibition of growth at 100 µM: ATCC 25923, 24 h, read-out: GI
[4] = system: Escherichia coli; experiment: Antibacterial activity against Escherichia coli assessed as growth inhibition at 100 uM after 24 hrs by turbidimetric analysis; type: functional, organism-based
[5] = system: Ralstonia solanacearum; experiment: Antibacterial activity against Ralstonia solanacearum assessed as growth inhibition at 100 uM after 24 hrs by turbidimetric analysis; type: functional, organism-based
[6] = system: Streptomyces scabiei; experiment: Antibacterial activity against Streptomyces scabiei CGMCC4.7610246 assessed as growth inhibition after 36 hrs by turbidimetric analysis; type: functional; details: CGMCC4.7610246, 36 h
[7] = system: Bacillus spizizenii; experiment: Antibacterial activity against Bacillus subtilis ATCC 6633 assessed as growth inhibition after 24 hrs by turbidimetric analysis; type: functional; details: ATCC 6633, 24 h
[8] = system: Staphylococcus aureus; experiment: Antibacterial activity against Staphylococcus aureus ATCC 25923 assessed as growth inhibition after 24 hrs by turbidimetric analysis; type: functional; details: ATCC 25923, 24 h
[9] = system: Staphylococcus aureus; experiment: Antibacterial activity against Staphylococcus aureus ATCC 25923 assessed as growth inhibition after 2 to 24 hrs; type: functional, organism-based

C[C@H]1[C@H](C)CC[C@]2(C(=O)OCc3ccccc3Cl)CC[C@]3(C)C(=CC[C@@H]4[C@@]5(C)[C@@H](O)[C@H](O)[C@H](O)C(C)(C)[C@@H]5CC[C@]43C)[C@H]12 was tested, and the “growth inhibition (GI)” value [1] was “inactive”, the “growth inhibition (GI)” value [2] was “Active” and the “growth inhibition (GI)” value [3] was “Active”.
In the case of CC1(C)CC[C@]2(C(=O)O)CC[C@]3(C)C(=CC[C@@H]4[C@@]5(C)[C@H]6O[C@H]6C(=O)C(C)(C)[C@@H]5CC[C@]43C)[C@@H]2C1, the “growth inhibition (GI)” value [1] is reported as “Active” and the “growth inhibition (GI)” value [2] is reported as “Active”.
CCCCCOC(=O)[C@]12CCC(C)(C)C[C@H]1C1=CC[C@@H]3[C@@]4(C)[C@@H](O)[C@H](O)[C@H](O)C(C)(C)[C@@H]4CC[C@@]3(C)[C@]1(C)CC2 was tested, and the “growth inhibition (GI)” value [2] was “Active” and the “growth inhibition (GI)” value [3] was “Active”.
For C[C@H]1[C@H](C)CC[C@]2(C(=O)O)CC[C@]3(C)C(=CC[C@@H]4[C@@]5(C)[C@@H](O)[C@H](O)[C@H](O)C(C)(C)[C@@H]5CC[C@]43C)[C@H]12, the “growth inhibition (GI)” value [1] was “Active”, the “growth inhibition (GI)” value [2] was “Active” and the “growth inhibition (GI)” value [3] was “Active”.
With C[C@H]1[C@H](C)CC[C@]2(C(=O)OCc3ccccc3)CC[C@]3(C)C(=CC[C@@H]4[C@@]5(C)[C@H]6O[C@H]6[C@H](O)C(C)(C)[C@@H]5CC[C@]43C)[C@H]12 the “growth inhibition (GI)” value [4] was “Active”, the “growth inhibition (GI)” value [1] was “Active” and the “growth inhibition (GI)” value [2] was “Active”. For the same compound, the “growth inhibition (GI)” value [3] was “Active” and the “growth inhibition (GI)” value [5] was “Active”.
CCCOC(=O)[C@]12CC[C@@H](C)[C@H](C)[C@H]1C1=CC[C@@H]3[C@@]4(C)[C@@H](O)[C@H](O)[C@H](O)C(C)(C)[C@@H]4CC[C@@]3(C)[C@]1(C)CC2 showed an inhibition of growth at 100 µM [2] of over 95%, an inhibition of growth at 100 µM [3] of over 95% and an MIC [6] of at least 100 µM. For the same compound, the MIC [7] was 32 µM (≈ 17 µg/mL) and the MIC [8] was 8 µM (≈ 4.25 µg/mL).
With C[C@H]1[C@H](C)CC[C@]2(C(=O)OCc3ccc([N+](=O)[O-])cc3)CC[C@]3(C)C(=CC[C@@H]4[C@@]5(C)[C@@H](O)[C@H](O)[C@H](O)C(C)(C)[C@@H]5CC[C@]43C)[C@H]12 the “growth inhibition (GI)” value [1] was “inactive”, the “growth inhibition (GI)” value [2] was “Active” and the “growth inhibition (GI)” value [3] was “Active”.
In the case of CC1(C)CC[C@]2(C(=O)OCc3ccccc3Cl)CC[C@]3(C)C(=CC[C@@H]4[C@@]5(C)[C@@H](O)[C@H](O)[C@H](O)C(C)(C)[C@@H]5CC[C@]43C)[C@@H]2C1, the “growth inhibition (GI)” value [1] is reported as “inactive”, the “growth inhibition (GI)” value [2] is reported as “Active” and the “growth inhibition (GI)” value [3] is reported as “Active”.
With CC1(C)S[C@@H]2[C@H](NC(=O)[C@H](N)c3ccccc3)C(=O)N2[C@H]1C(=O)O [AMPICILLIN] the MIC [6] was at least 100 µM, the MIC [7] was at least 100 µM and the MIC [8] was 4 µM (≈ 1.4 µg/mL).
In the case of C[C@H]1[C@H](C)CC[C@]2(C(=O)OCc3ccccc3)CC[C@]3(C)C(=CC[C@@H]4[C@@]5(C)[C@@H](O)[C@H](O)[C@H](O)C(C)(C)[C@@H]5CC[C@]43C)[C@H]12, the “growth inhibition (GI)” value [3] is reported as “Active”.
In the case of CCCOC(=O)[C@]12CCC(C)(C)C[C@H]1C1=CC[C@@H]3[C@@]4(C)[C@@H](O)[C@H](O)[C@H](O)C(C)(C)[C@@H]4CC[C@@]3(C)[C@]1(C)CC2, the “growth inhibition (GI)” value [9] is reported as “Dose-dependent effect”, the inhibition of growth at 100 µM [2] is reported as over 95% and the inhibition of growth at 100 µM [3] is reported as over 95%. The MIC [6] was at least 100 µM, the MIC [7] was 64 µM (≈ 34 µg/mL) and the MIC [8] was 2 µM (≈ 1.06 µg/mL).
CC1(C)CC[C@]2(C(=O)O)CC[C@]3(C)C(=CC[C@@H]4[C@@]5(C)C=CC(=O)C(C)(C)[C@@H]5CC[C@]43C)[C@@H]2C1 was tested, and the “growth inhibition (GI)” value [1] was “Active”, the “growth inhibition (GI)” value [2] was “Active” and the “growth inhibition (GI)” value [3] was “Active”.
With CC1(C)CC[C@]2(C(=O)OCc3ccccc3[N+](=O)[O-])CC[C@]3(C)C(=CC[C@@H]4[C@@]5(C)[C@@H](O)[C@H](O)[C@H](O)C(C)(C)[C@@H]5CC[C@]43C)[C@@H]2C1 the “growth inhibition (GI)” value [1] was “inactive”, the “growth inhibition (GI)” value [2] was “Active” and the “growth inhibition (GI)” value [3] was “Active”.
With C[C@H]1[C@H](C)CC[C@]2(C(=O)OCc3ccccc3)CC[C@]3(C)C(=CC[C@@H]4[C@@]5(C)[C@H]6O[C@H]6[C@@H](O)C(C)(C)[C@@H]5CC[C@]43C)[C@H]12 the “growth inhibition (GI)” value [4] was “Active”, the “growth inhibition (GI)” value [1] was “Active” and the “growth inhibition (GI)” value [2] was “Active”. For the same compound, the “growth inhibition (GI)” value [3] was “Active” and the “growth inhibition (GI)” value [5] was “Active”.
With CCCCCOC(=O)[C@]12CC[C@@H](C)[C@H](C)[C@H]1C1=CC[C@@H]3[C@@]4(C)[C@@H](O)[C@H](O)[C@H](O)C(C)(C)[C@@H]4CC[C@@]3(C)[C@]1(C)CC2 the “growth inhibition (GI)” value [2] was “Active” and the “growth inhibition (GI)” value [3] was “Active”.
CC1(C)CC[C@]2(C(=O)OCc3ccc([N+](=O)[O-])cc3)CC[C@]3(C)C(=CC[C@@H]4[C@@]5(C)[C@@H](O)[C@H](O)[C@H](O)C(C)(C)[C@@H]5CC[C@]43C)[C@@H]2C1 was tested, and the “growth inhibition (GI)” value [1] was “inactive”, the “growth inhibition (GI)” value [2] was “Active” and the “growth inhibition (GI)” value [3] was “Active”.
In the case of C[C@H]1[C@H](C)CC[C@]2(C(=O)OCc3ccccc3)CC[C@]3(C)C(=CC[C@@H]4[C@@]5(C)[C@H]6O[C@H]6C(=O)C(C)(C)[C@@H]5CC[C@]43C)[C@H]12, the “growth inhibition (GI)” value [1] is reported as “Active” and the “growth inhibition (GI)” value [2] is reported as “Active”.
CCCCOC(=O)[C@]12CCC(C)(C)C[C@H]1C1=CC[C@@H]3[C@@]4(C)[C@@H](O)[C@H](O)[C@H](O)C(C)(C)[C@@H]4CC[C@@]3(C)[C@]1(C)CC2 was tested, and the inhibition of growth at 100 µM [2] was over 95%, the inhibition of growth at 100 µM [3] was over 95% and the MIC [6] was at least 100 µM. It also gave an MIC [7] of at least 100 µM and an MIC [8] of 8 µM (≈ 4.36 µg/mL).
In the case of CCCCCCCCCCCCCCCOC(=O)[C@]12CC[C@@H](C)[C@H](C)[C@H]1C1=CC[C@@H]3[C@@]4(C)[C@@H](O)[C@H](O)[C@H](O)C(C)(C)[C@@H]4CC[C@@]3(C)[C@]1(C)CC2, the “growth inhibition (GI)” value [2] is reported as “Active” and the “growth inhibition (GI)” value [3] is reported as “Active”.
For CC1(C)CC[C@]2(C(=O)OCc3ccc(Cl)cc3)CC[C@]3(C)C(=CC[C@@H]4[C@@]5(C)[C@@H](O)[C@H](O)[C@H](O)C(C)(C)[C@@H]5CC[C@]43C)[C@@H]2C1, the “growth inhibition (GI)” value [1] was “inactive”, the MIC [6] was at least 100 µM and the MIC [7] was at least 100 µM. The MIC [8] was 64 µM (≈ 39.2 µg/mL).
In the case of C[C@H]1[C@H](C)CC[C@]2(C(=O)OCc3ccccc3)CC[C@]3(C)C(=CC[C@@H]4[C@@]5(C)C=CC(=O)C(C)(C)[C@@H]5CC[C@]43C)[C@H]12, the “growth inhibition (GI)” value [1] is reported as “Active”, the “growth inhibition (GI)” value [2] is reported as “Active” and the “growth inhibition (GI)” value [3] is reported as “Active”.
For C[C@H]1[C@H](C)CC[C@]2(C(=O)OCc3ccccc3[N+](=O)[O-])CC[C@]3(C)C(=CC[C@@H]4[C@@]5(C)[C@@H](O)[C@H](O)[C@H](O)C(C)(C)[C@@H]5CC[C@]43C)[C@H]12, the “growth inhibition (GI)” value [1] was “inactive”, the “growth inhibition (GI)” value [2] was “Active” and the “growth inhibition (GI)” value [3] was “Active”.
For CC1(C)CC[C@]2(C(=O)O)CC[C@]3(C)C(=CC[C@@H]4[C@@]5(C)[C@@H](O)[C@H](O)[C@H](O)C(C)(C)[C@@H]5CC[C@]43C)[C@@H]2C1, the “growth inhibition (GI)” value [3] was “Active”.
For CCCCCCCCCCCCCCCOC(=O)[C@]12CCC(C)(C)C[C@H]1C1=CC[C@@H]3[C@@]4(C)[C@@H](O)[C@H](O)[C@H](O)C(C)(C)[C@@H]4CC[C@@]3(C)[C@]1(C)CC2, the “growth inhibition (GI)” value [2] was “Active” and the “growth inhibition (GI)” value [3] was “Active”.
With CN[C@@H]1[C@H](O[C@H]2[C@H](O[C@H]3[C@H](O)[C@@H](O)[C@H](N=C(N)N)[C@@H](O)[C@@H]3N=C(N)N)O[C@@H](C)[C@]2(O)C=O)O[C@@H](CO)[C@H](O)[C@H]1O [STREPTOMYCIN] the MIC [6] was 4 µM (≈ 2.33 µg/mL), the MIC [7] was 2 µM (≈ 1.16 µg/mL) and the MIC [8] was at least 100 µM.
With C[C@H]1[C@H](C)CC[C@]2(C(=O)OCc3ccc(Cl)cc3)CC[C@]3(C)C(=CC[C@@H]4[C@@]5(C)[C@@H](O)[C@H](O)[C@H](O)C(C)(C)[C@@H]5CC[C@]43C)[C@H]12 the “growth inhibition (GI)” value [1] was “inactive”, the “growth inhibition (GI)” value [2] was “Active” and the “growth inhibition (GI)” value [3] was “Active”.
CCCCOC(=O)[C@]12CC[C@@H](C)[C@H](C)[C@H]1C1=CC[C@@H]3[C@@]4(C)[C@@H](O)[C@H](O)[C@H](O)C(C)(C)[C@@H]4CC[C@@]3(C)[C@]1(C)CC2 was tested, and the inhibition of growth at 100 µM [2] was over 95%, the inhibition of growth at 100 µM [3] was over 95% and the MIC [6] was at least 100 µM. For the same compound, the MIC [7] was 64 µM (≈ 34.9 µg/mL) and the MIC [8] was 8 µM (≈ 4.36 µg/mL).
COC(=O)[C@]12CC[C@@H](C)[C@H](C)[C@H]1C1=CC[C@@H]3[C@@]4(C)[C@@H](O)[C@H](O)[C@H](O)C(C)(C)[C@@H]4CC[C@@]3(C)[C@]1(C)CC2 gave an inhibition of growth at 100 µM [2] of over 95%, an inhibition of growth at 100 µM [3] of over 95% and an MIC [6] of 64 µM (≈ 32.2 µg/mL). For the same compound, the MIC [7] was 32 µM (≈ 16.1 µg/mL) and the MIC [8] was 8 µM (≈ 4.02 µg/mL).
Compound CC(C)OC(=O)[C@]12CCC(C)(C)C[C@H]1C1=CC[C@@H]3[C@@]4(C)[C@@H](O)[C@H](O)[C@H](O)C(C)(C)[C@@H]4CC[C@@]3(C)[C@]1(C)CC2 has an inhibition of growth at 100 µM [2] of over 95%, an inhibition of growth at 100 µM [3] of over 95% and an MIC [6] of at least 100 µM. It also gave an MIC [7] of 64 µM (≈ 34 µg/mL) and an MIC [8] of 8 µM (≈ 4.25 µg/mL).
